Laboratory results as given in the supplement of paper PMC10307832.

Legend:
Assay in all cases: relative viability (nuclei count vs DMSO), 5 days (fraction); higher = more cells survive
EHT 1864 + Palbociclib = compound: C1COCCN1CC2=CC(=O)C(=CO2)OCCCCCSC3=C4C=CC(=CC4=NC=C3)C(F)(F)F [EHT 1864] + CC(=O)c1c(C)c2cnc(Nc3ccc(N4CCNCC4)cn3)nc2n(C2CCCC2)c1=O [Palbociclib] (partner 0.5 µM)
Outline: (§1)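 The day after seeding in 1536-well plates, lung cancer cell lines were treated by pin tool with a single drug, or with a fixed anchor-drug dose together with five library-drug doses (not always all listed) in √10 steps. After 5 days, a combined fix-and-stain solution (final 0.05% Triton X-100, 1% formaldehyde, 1 ug/ml Hoechst) was added. Nuclei counted on 4× images gave relative viability as treated counts over vehicle counts, reported as the median of duplicate plates.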

EHT 1864 + Bortezomib = compound: C1COCCN1CC2=CC(=O)C(=CO2)OCCCCCSC3=C4C=CC(=CC4=NC=C3)C(F)(F)F [EHT 1864] + CC(C)C[C@H](NC(=O)[C@H](Cc1ccccc1)NC(=O)c1cnccn1)B(O)O [Bortezomib] (partner 0.002 µM)
Outline: as §1

EHT 1864 + Alpelisib = compound: C1COCCN1CC2=CC(=O)C(=CO2)OCCCCCSC3=C4C=CC(=CC4=NC=C3)C(F)(F)F [EHT 1864] + Cc1nc(NC(=O)N2CCC[C@H]2C(N)=O)sc1-c1ccnc(C(C)(C)C(F)(F)F)c1 [Alpelisib] (partner 2 µM)
Outline: as §1

EHT 1864 + Dasatinib = compound: C1COCCN1CC2=CC(=O)C(=CO2)OCCCCCSC3=C4C=CC(=CC4=NC=C3)C(F)(F)F [EHT 1864] + Cc1nc(Nc2ncc(C(=O)Nc3c(C)cccc3Cl)s2)cc(N2CCN(CCO)CC2)n1 [Dasatinib] (partner 0.075 µM)
Outline: as §1

| Cell Line | relative viability (EHT 1864 + Palbociclib; first compound 0.04 µM) | relative viability (EHT 1864 + Palbociclib; first compound 0.1265 µM) | relative viability (EHT 1864 + Palbociclib; first compound 0.4 µM) | relative viability (EHT 1864 + Palbociclib; first compound 1.265 µM) | relative viability (EHT 1864 + Palbociclib; first compound 4 µM) | relative viability (EHT 1864 + Bortezomib; first compound 0.04 µM) | relative viability (EHT 1864 + Bortezomib; first compound 0.1265 µM) | relative viability (EHT 1864 + Bortezomib; first compound 0.4 µM) | relative viability (EHT 1864 + Bortezomib; first compound 1.265 µM) | relative viability (EHT 1864 + Bortezomib; first compound 4 µM) | relative viability (EHT 1864 + Alpelisib; first compound 0.04 µM) | relative viability (EHT 1864 + Alpelisib; first compound 0.1265 µM) | relative viability (EHT 1864 + Alpelisib; first compound 0.4 µM) | relative viability (EHT 1864 + Alpelisib; first compound 1.265 µM) | relative viability (EHT 1864 + Alpelisib; first compound 4 µM) | relative viability (EHT 1864 + Dasatinib; first compound 0.04 µM) | relative viability (EHT 1864 + Dasatinib; first compound 0.1265 µM) | relative viability (EHT 1864 + Dasatinib; first compound 0.4 µM) | relative viability (EHT 1864 + Dasatinib; first compound 1.265 µM) | relative viability (EHT 1864 + Dasatinib; first compound 4 µM) |
| --- | --- | --- | --- | --- | --- | --- | --- | --- | --- | --- | --- | --- | --- | --- | --- | --- | --- | --- | --- | --- |
| NCI-H2009 | 0.228 | 0.209 | 0.193 | 0.24 | 0.173 | 0.881 | 0.794 | 1.04 | 0.918 | 0.936 | 1.16 | 1.13 | 1.11 | 1.12 | 0.971 | 0.259 | 0.258 | 0.323 | 0.241 | 0.251 |
| NCI-H1651 | 0.529 | 0.501 | 0.534 | 0.504 | 0.522 | 0.988 | 0.89 | 0.974 | 0.868 | 0.929 | 0.917 | 0.876 | 0.949 | 0.967 | 0.878 | 0.407 | 0.425 | 0.332 | 0.37 | 0.471 |
| LCLC-103H | 0.506 | 0.393 | 0.504 | 0.467 | 0.498 | 1.18 | 1.01 | 1.14 | 1.06 | 1.02 | 1.05 | 0.888 | 0.956 | 1.03 | 1.07 | 0.409 | 0.399 | 0.373 | 0.431 | 0.505 |
| NCI-H1666 | 0.644 | 0.611 | 0.667 | 0.583 | 0.636 | 0.763 | 0.728 | 0.772 | 0.78 | 0.98 | 0.898 | 1.12 | 0.978 | 0.98 | 0.966 | 0.86 | 0.805 | 0.746 | 0.745 | 0.795 |
| NCI-H1734 | 0.411 | 0.314 | 0.337 | 0.337 | 0.356 | 1.09 | 0.788 | 0.914 | 0.902 | 0.901 | 0.741 | 0.629 | 0.627 | 0.609 | 0.64 | 0.497 | – | 0.523 | 0.528 | 0.502 |
| EPLC-272H | 0.356 | 0.353 | 0.317 | 0.33 | 0.352 | 0.774 | 0.63 | 0.839 | 0.823 | 0.977 | 1.08 | 0.933 | 0.977 | 1.07 | 0.999 | 0.359 | 0.327 | 0.395 | 0.452 | 0.275 |
| NCI-H2023 | 0.33 | 0.318 | 0.354 | 0.382 | 0.364 | 0.911 | 0.634 | 0.867 | 1.04 | 0.953 | 0.513 | 0.597 | 0.564 | 0.694 | 0.546 | 0.568 | 0.628 | 0.508 | 0.517 | 0.577 |
| BEN | 0.468 | 0.493 | 0.472 | 0.435 | 0.47 | 0.8 | 0.719 | 0.64 | 0.549 | 0.624 | 0.941 | 0.825 | 0.92 | 0.938 | 1.1 | 0.384 | 0.279 | 0.377 | 0.308 | 0.36 |
| COR-L 105 | 0.362 | 0.417 | 0.411 | 0.414 | 0.41 | 0.772 | 0.7 | 0.941 | 0.751 | 0.727 | 0.906 | 1.06 | 1.03 | 0.969 | 0.841 | 0.415 | 0.314 | 0.34 | 0.334 | 0.396 |
| ABC-1 | 0.629 | 0.631 | 0.692 | 0.687 | 0.577 | 0.32 | 0.306 | 0.316 | 0.371 | 0.303 | 0.665 | 1 | 1.05 | 0.92 | 1.07 | 0.504 | – | 0.631 | 0.488 | 0.439 |
| HCC-15 | 0.76 | – | 0.78 | 0.682 | 0.72 | 0.955 | 0.808 | 1.04 | 0.867 | 1.05 | 0.902 | 0.797 | 0.903 | 0.823 | 0.842 | 0.56 | – | 0.623 | 0.618 | 0.543 |
| PC-3 [JPC-3] | 0.549 | 0.554 | 0.539 | 0.545 | 0.57 | 0.83 | 0.737 | 0.895 | 0.853 | 0.763 | 1.04 | 0.944 | 1.01 | 0.957 | 0.987 | 1.05 | 0.901 | 0.996 | 1.02 | 0.896 |
| NCI-H1993 | 0.693 | – | 0.682 | 0.664 | 0.741 | 0.973 | 0.733 | 1.06 | 1.01 | 1.06 | 0.733 | 0.658 | 0.568 | 0.679 | 0.732 | 0.841 | – | 0.498 | 0.613 | 0.639 |
| NCI-H1915 | 0.554 | – | 0.53 | 0.503 | 0.516 | 1 | – | 1.01 | 0.934 | 0.964 | 1.12 | – | 0.988 | 1.05 | 1.05 | 0.309 | – | 0.296 | 0.338 | 0.282 |
| RERF-LC-KJ | 1.09 | 0.989 | 0.929 | 1.02 | 1.11 | 1.05 | 0.948 | 1.04 | 0.951 | 1.15 | 0.759 | 0.743 | 0.755 | 0.947 | 0.776 | 0.825 | 0.793 | 0.795 | 0.772 | 0.682 |
| LOU-NH91 | 0.512 | 0.524 | 0.53 | 0.495 | 0.589 | 0.566 | 0.514 | 0.492 | 0.498 | 0.498 | 0.739 | 0.7 | 0.793 | 0.736 | 0.624 | 0.543 | 0.5 | 0.56 | 0.628 | 0.486 |
| NCI-H2347 | 0.428 | 0.382 | 0.368 | 0.439 | 0.364 | 1.24 | – | 1.13 | 0.894 | 0.995 | 1.02 | 0.868 | 0.989 | 1.03 | 1.2 | 0.358 | 0.251 | 0.308 | – | 0.332 |
